Test results as given in ChEMBL document CHEMBL3046541, “Design and synthesis of 2-chloroquinoline derivatives as non-azoles antimycotic agents” (2011).

Experiments:
Type in all cases: functional
[1] = tested on: Aspergillus niger; assay: Antifungal activity against Aspergillus niger MTCC 281 at 200 ug/ml after 72 hr by cup-plate method; conditions: MTCC 281, 72 h, read-out: IZ
[2] = tested on: Penicillium citrinum; assay: Antifungal activity against Penicillium citrinum NCIM 768 at 200 ug/ml after 72 hr by cup-plate method; conditions: NCIM 768, 72 h, read-out: IZ
[3] = tested on: Monascus purpureus; assay: Antifungal activity against Monascus purpureus MTCC 369 at 200 ug/ml after 72 hr by cup-plate method; conditions: MTCC 369, 72 h, read-out: IZ
[4] = tested on: Aspergillus flavus; assay: Antifungal activity against Aspergillus flavus MTCC 277 at 200 ug/ml after 72 hr by cup-plate method; conditions: MTCC 277, 72 h, read-out: IZ
[5] = tested on: Aspergillus niger; assay: Antifungal activity against Aspergillus niger MTCC 281 at 100 ug/ml after 72 hr by cup-plate method; conditions: MTCC 281, 72 h, read-out: IZ
[6] = tested on: Aspergillus flavus; assay: Antifungal activity against Aspergillus flavus MTCC 277 at 100 ug/ml after 72 hr by cup-plate method; conditions: MTCC 277, 72 h, read-out: IZ
[7] = tested on: Monascus purpureus; assay: Antifungal activity against Monascus purpureus MTCC 369 at 100 ug/ml after 72 hr by cup-plate method; conditions: MTCC 369, 72 h, read-out: IZ
[8] = tested on: Penicillium citrinum; assay: Antifungal activity against Penicillium citrinum NCIM 768 at 100 ug/ml after 72 hr by cup-plate method; conditions: NCIM 768, 72 h, read-out: IZ

SMILES	zone of inhibition at 200 µg/mL [1]	zone of inhibition at 200 µg/mL [2]	zone of inhibition at 200 µg/mL [3]	zone of inhibition at 200 µg/mL [4]	zone of inhibition at 100 µg/mL [5]	zone of inhibition at 100 µg/mL [6]	zone of inhibition at 100 µg/mL [7]	zone of inhibition at 100 µg/mL [8]
Clc1nc2ccccc2cc1CNc1ccccc1	12 mm	8.06 mm	7.7 mm	12.4 mm	–	–	–	–
Clc1ccc(NCc2cc3ccccc3nc2Cl)cc1	15.9 mm	10.3 mm	9.73 mm	16 mm	–	–	–	–
Cc1ccc(NCc2cc3ccccc3nc2Cl)cc1	10.9 mm	8.06 mm	7.63 mm	12.8 mm	–	–	–	–
Clc1nc2ccccc2cc1CNc1ccc(Br)cc1	13.7 mm	9.86 mm	8 mm	10.5 mm	–	–	–	–
Clc1cccc(NCc2cc3ccccc3nc2Cl)c1	13.4 mm	8.03 mm	9.63 mm	11.6 mm	–	–	–	–
COc1ccc(NCc2cc3ccccc3nc2Cl)cc1	10.8 mm	7.63 mm	7.66 mm	13 mm	–	–	–	–
Fc1ccc(NCc2cc3ccccc3nc2Cl)cc1	14.8 mm	8.53 mm	9.8 mm	15 mm	–	–	–	–
O=[N+]([O-])c1ccc(NCc2cc3ccccc3nc2Cl)cc1	8.06 mm	6.13 mm	7.7 mm	8.33 mm	–	–	–	–
Cc1cccc(NCc2cc3ccccc3nc2Cl)c1	9.53 mm	5.73 mm	7.6 mm	10.1 mm	–	–	–	–
Cc1ccccc1NCc1cc2ccccc2nc1Cl	8.66 mm	7.03 mm	6.4 mm	7.03 mm	–	–	–	–
Fc1ccc(NCc2cc3ccccc3nc2Cl)cc1Cl	17.8 mm	9.73 mm	11.5 mm	19.7 mm	–	–	–	–
Clc1ccccc1NCc1cc2ccccc2nc1Cl	13.9 mm	7.06 mm	7.33 mm	10.6 mm	–	–	–	–
Clc1ccc(NCc2cc3ccccc3nc2Cl)cc1Cl	19.6 mm	8.76 mm	9.7 mm	18.7 mm	–	–	–	–
Clc1nc2ccccc2cc1CNC1CCCCC1	6.27 mm	–	–	–	–	–	–	–
CCCCNCc1cc2ccccc2nc1Cl	9.47 mm	–	–	8.25 mm	–	–	–	–
Clc1nc2ccccc2cc1CNCc1ccccc1	15.7 mm	9.06 mm	8.4 mm	14.5 mm	–	–	–	–
CN(Cc1cc2ccccc2nc1Cl)c1ccccc1	13.2 mm	9.74 mm	8.09 mm	14.2 mm	–	–	–	–
CN(Cc1cc2ccccc2nc1Cl)c1ccc(Cl)cc1	17.1 mm	9.85 mm	10.5 mm	17.7 mm	–	–	–	–
CN(Cc1cc2ccccc2nc1Cl)c1cccc(Cl)c1	15.2 mm	11.1 mm	9.63 mm	12.1 mm	–	–	–	–
CN(Cc1cc2ccccc2nc1Cl)c1ccc(F)cc1	15.9 mm	9.77 mm	11.5 mm	17.1 mm	–	–	–	–
CN(Cc1cc2ccccc2nc1Cl)c1ccc(F)c(Cl)c1	19.4 mm	10.4 mm	13.1 mm	20.8 mm	–	–	–	–
CN(Cc1cc2ccccc2nc1Cl)c1ccc(Cl)c(Cl)c1	21.1 mm	11.1 mm	10.4 mm	19.5 mm	–	–	–	–
CN(C/C=C/C#CC(C)(C)C)Cc1cccc2ccccc12 [TERBINAFINE]	–	–	–	–	24.7 mm	25.1 mm	26.2 mm	21.8 mm
